Reference: patent US20020142436A1, “Human adenylate cyclase and use therefor” (priority 1995, published 2002)
Square brackets hold non-standard residues; d marks the D form. Ends that are not written are not given here. Peptide text beside a SMILES is read from it. ξ: configuration not given here. ξNMeBmt = C/C=C/C[C@@H](C)[C@@H](O)C(NC)C(=O)O; NMeL = CN[C@@H](CC(C)C)C(=O)O; NMeV = CN[C@H](C(=O)O)C(C)C; Abu = CC[C@H](N)C(=O)O; Sar = CNCC(=O)O

Tests used:
AtT20 cells [1] = experiment: CRF-induced cAMP accumulation in AtT20 cells; assay type: cell-based, mouse; conditions: for cAMP response to CRF after lowering intracellular free Ca2+: EGTA 2 mmol/l, nimodipine 1 μmol/l, BAPTA-AM 20 μmol/l in preincubation, IBMX 0.5 mmol/l; for CRF-induced cAMP formation: 1 μmol/l FK506, 10 nmol/l CRF, calcium-depleted cells
Procedure: Experiments for cAMP were all carried out in Hanks balanced salt solution containing 2 mM CaCl2 and 1 mM MgSO4 buffered with 25 mM HEPES pH 7.4 and supplemented with 0.25% (w/v) of bovine serum albumin. The cells were preincubated in serum free medium for 1 hour, after which blockers of phosphosdiesterase (isobutylmethylxanthine 0.5 mM (IBMX) and/or rolipram 0.1 mM) along with various other treatments were applied for 30 minutes at 37° C. Subsequently the cells were cooled to 22° C. for 5 minutes in a water bath and agonists were added for 10 minutes. The reaction was stopped by the addition of 0.2 mol/l HCl to achieve a final concentration of 0.1 mol/l (Brooker et al, (1979) Adv. in Cyclic Nucl. Res. Vol. 10, G. Brooker, P. Greengard and G. A. Robinson, Raven Press, New York, 2-34).
In some experiments cells were preincubated for 30 minutes in medium containing 2 mmol/l EGTA and no added Ca^2+, supplemented with 5 μmol/l A23187 and 2.5 μmol/l nifedipine in order to deplete rapidly mobilized cellular stores of Ca^2+. […] The rationale for this pretreatment is that calcineurin reportedly influences L-channel activity (Lai et al, (1993) J. Neurochem. 61:1333-1339; and Armstrong et al, (1987) Proc. Natl. Acad. Sci. U.S.A. 84:2518-2522), whereas the treatment regimen used here would make Ca^2+ entry independent of this regulation.
These compounds were made up in ethanol at 10^−3 mol/l and diluted with the incubation medium to the desired final concentrations. In some cases cells were preincubated with L685,818 the structural analogue of FK506 that binds to FKBP-12 and inhibits prolyl-isomerase activity but is devoid of immunosuppressant activity (Dumont et al, (1992) J. Exp. Med. 176:751-760) for 10 minutes before the addition of FK506 for 30 minutes at 37° C.

AtT20 cells [2] = experiment: forskolin-evoked cAMP accumulation in AtT20 cells; assay type: cell-based, mouse
Procedure: The cells were preincubated in serum free medium for 1 hour, after which blockers of phosphosdiesterase (isobutylmethylxanthine 0.5 mM (IBMX) and/or rolipram 0.1 mM) along with various other treatments were applied for 30 minutes at 37° C. Subsequently the cells were cooled to 22° C. for 5 minutes in a water bath and agonists were added for 10 minutes. […] Res. Vol. 10, G. Brooker, P. Greengard and G. A. Robinson, Raven Press, New York, 2-34).

AtT20 cells [3] = experiment: cAMP accumulation induced by β-adrenergic stimulation (isoproterenol) in AtT20 cells; assay type: cell-based, mouse
[4] = tested on: HEK293 cells transfected with AC; experiment: cAMP in HEK293 cells transiently transfected with AC; assay type: cell-based, human; conditions: FK506 2 μmol/l, L-685,818 100 μmol/l; 1 mmol/l IBMX, 0.1 mmol/l rolipram
AtT20 cells [5] = experiment: ACTH release by AtT20 cells; assay type: cell-based, mouse
[6] = tested on: T1, GST fusion protein of the FKBP12 like domain (residues 594-611) of mouse AC
T1 sequence: IDDSRESSGPRGQGTASP

[7] = isoproterenol 2 nmol/l, pretreatment FK506 1 μmol/l or BAPTA/AM 20 μmol/l, IBMX 0.5 mmol/l, rolipram 0.1 mmol/l
[8] = isoproterenol 10 nmol/l, pretreatment FK506 1 μmol/l or BAPTA/AM 20 μmol/l, IBMX 0.5 mmol/l, rolipram 0.1 mmol/l
[9] = isoproterenol 1000 nmol/l, pretreatment FK506 1 μmol/l or BAPTA/AM 20 μmol/l, IBMX 0.5 mmol/l, rolipram 0.1 mmol/l

For CNc1ccc2oc(C[C@H]3O[C@@]4(CC[C@H]3C)O[C@H]([C@H](C)C(=O)c3ccc[nH]3)[C@H](C)C[C@H]4C)nc2c1C(=O)O [A23187], the “cAMP response to CRF after lowering intracellular free Ca2+” value (AtT20 cells [1]) was “markedly increased the cAMP response to CRF”.

For CC(=O)OCOC(=O)CN(CC(=O)OCOC(C)=O)c1ccccc1OCCOc1ccccc1N(CC(=O)OCOC(C)=O)CC(=O)OCOC(C)=O [BAPTA-AM, [1,2-bis-(o-Aninophenoxy)-ethane-N,N,N′,N′-tetraacetic acid tetra-(acetoxymethyl)-ester]], the “enhancement of forskolin-evoked cAMP accumulation” value (AtT20 cells [2]; cells loaded with BAPTA-AM) was 15%, the “isoproterenol induced cAMP formation” value (AtT20 cells [3]) was “enhanced” and the cAMP accumulation (AtT20 cells [3]; isoproterenol 0.4 nmol/l, pretreatment FK506 1 μmol/l or BAPTA/AM 20 μmol/l, IBMX 0.5 mmol/l, rolipram 0.1 mmol/l) was 0.96 ± 0.06. For the same molecule, the cAMP accumulation (AtT20 cells [3]; [7]) was 3.6 ± 0.6, the cAMP accumulation (AtT20 cells [3]; [8]) was 11.4 ± 0.9 and the cAMP accumulation (AtT20 cells [3]; isoproterenol 100 nmol/l, pretreatment FK506 1 μmol/l or BAPTA/AM 20 μmol/l, IBMX 0.5 mmol/l, rolipram 0.1 mmol/l) was 35.5 ± 3.4. For the same molecule, the cAMP accumulation (AtT20 cells [3]; [9]) was 46.9 ± 9 and the “cAMP response to CRF after lowering intracellular free Ca2+” value (AtT20 cells [1]) was “markedly increased the cAMP response to CRF”.

For O=C(O)CN(CCOCCOCCN(CC(=O)O)CC(=O)O)CC(=O)O [EGTA], the “cAMP response to CRF after lowering intracellular free Ca2+” value (AtT20 cells [1]) was “markedly increased the cAMP response to CRF”.

In the case of C=CC[C@@H]1/C=C(\C)C[C@H](C)C[C@H](OC)[C@H]2O[C@@](O)(C(=O)C(=O)N3CCCC[C@H]3C(=O)O[C@H](/C(C)=C/[C@@H]3CC[C@@H](O)[C@H](OC)C3)[C@H](C)[C@@H](O)CC1=O)[C@H](C)C[C@@H]2OC [FK506], the “unstimulated cAMP levels” value [4] is reported as 3 fold, the “cAMP accumulation evoked by forskolin” value (AtT20 cells [2]; 10 or 30 μM forskolin) is reported as “no significant effect” and the EC50 (AtT20 cells [5]; Mus musculus, AtT20, read-out: apparent EC50 to stimulate ACTH release) is reported as about 10 nM. For the same molecule, the cAMP accumulation (AtT20 cells [3]; [7]) was 3.3 ± 0.7, the cAMP accumulation (AtT20 cells [3]; [8]) was 15.3 ± 2.5 and the cAMP accumulation (AtT20 cells [3]; [9]) was 45.3 ± 9. The EC50 (AtT20 cells [1]; Mus musculus, AtT20, read-out: apparent EC50 to augment cAMP accumulation induced by CRF) was about 10 nM, the “CRF-induced cAMP formation” value (AtT20 cells [1]; extracellular free Ca2+ 0 mmol/l, 0.5 mmol/l IBMX) was 10.3 ± 0.10 pmol/well and the “CRF-induced cAMP formation” value (AtT20 cells [1]; extracellular free Ca2+ 0.5 mmol/l, 0.5 mmol/l IBMX) was 10.0 ± 0.11 pmol/well. The “CRF-induced cAMP formation” value (AtT20 cells [1]; extracellular free Ca2+ 1.0 mmol/l, 0.5 mmol/l IBMX) was 10.4 ± 0.10 pmol/well, the “CRF-induced cAMP formation” value (AtT20 cells [1]; extracellular free Ca2+ 1.5 mmol/l, 0.5 mmol/l IBMX) was 11.3 ± 0.13 pmol/well and the “CRF-induced cAMP formation” value (AtT20 cells [1]; extracellular free Ca2+ 2.0 mmol/l, 0.5 mmol/l IBMX) was 9.5 ± 0.11 pmol/well.

Molecule CC(C)NCC(O)c1ccc(O)c(O)c1 (centres unmarked) [Isoproterenol] has a cAMP accumulation (AtT20 cells [3]; isoproterenol 0.4 nmol/l, no pretreatment) of 0.7 ± 0.04, a cAMP accumulation (AtT20 cells [3]; isoproterenol 2 nmol/l, no pretreatment) of 2.0 ± 0.08 and a cAMP accumulation (AtT20 cells [3]; isoproterenol 10 nmol/l, no pretreatment) of 9.5 ± 0.33. For the same molecule, the cAMP accumulation (AtT20 cells [3]; isoproterenol 100 nmol/l, no pretreatment) was 19.5 ± .5 and the cAMP accumulation (AtT20 cells [3]; isoproterenol 1000 nmol/l, no pretreatment) was 32.1 ± 0.5.

In the case of C/C=C/C[C@@H](C)[C@@H](O)C1C(=O)N[C@@H](CC)C(=O)N(C)CC(=O)N(C)[C@@H](C(C)C)C(=O)N[C@@H](C(C)C)C(=O)N(C)[C@@H](CC(C)C)C(=O)N[C@@H](C)C(=O)N[C@H](C)C(=O)N(C)[C@@H](CC(C)C)C(=O)N(C)[C@@H](CC(C)C)C(=O)N(C)[C@@H](C(C)C)C(=O)N1C (some centres unmarked) [MeVal^4-cyclosporin A] (cyclo(A[dA][NMeL][NMeL][NMeV][ξNMeBmt][Abu][Sar][NMeV]V[NMeL])), the “CRF-induced cAMP production” value (AtT20 cells [1]; 10 nmol/l CRF, 0.5 mmol/l IBMX, drug preincubated 30 minutes) is reported as “enhanced CRF-induced cAMP production in a concentration dependent manner”.

For “CRF: hypothalamic neuropeptide corticotropin-releasing factor (SEEPPISLDLTFHLLREVLEMARAEQLAQQAHSNRKLMEII; ends and bridges not checked; UniProt P06850 154-194, looked up)”, the “CRF-stimulated ACTH release” value (AtT20 cells [5]; FIG. 7A, value taken as 100%) was 22±1 fmol/well*30 minutes, the “cAMP level in the presence of CRF” value (AtT20 cells [1]; 10 nmol/l CRF (FIG. 3A)) was 12 pmol/well*10minutes and the “increment of cAMP caused by CRF” value (AtT20 cells [1]; 10 nmol/l CRF, 0.5 mmol/l isobutylmethylxanthine (FIG. 1)) was 6.1 pmol/well.

For cAMP dependent protein kinase, the “phosphorylation of the cyclase portion of the GST fusion protein” value [6] was “can be phosphorylated by cAMP dependent protein kinase”.

For “calcineurin (protein phosphatase 2B), as used on the GST fusion protein”, the “dephosphorylation of the cyclase portion of the GST fusion protein” value [6] was “dephosphorylated in a calcium dependent manner by calcineurin”.

In the case of pertussis toxin, the “suppression of CRF-induced cAMP formation by extracellular Ca2+” value (AtT20 cells [1]; Ca2+-depleted cells, pertussis toxin treatment) is reported as “had no effect on the suppression of CRF-induced cAMP formation by extracelluar Ca^2+” and the “inhibitory G-protein function (somatostatin-mediated inhibition of cAMP formation)” value (AtT20 cells [1]; pertussis toxin 1 μg/ml) is reported as “strongly suppressed inhibitory G-protein function”.
